Results taken from patent US12006314B2, “Anti-cancer nuclear hormone receptor-targeting compounds” (Nuvation Bio Inc., priority 2021, dated 2024).
Substitutions are numbered along the chain they refer to.

Key:
[1] = molecular target: T1, AR (cytosol from LnCaP cells) (Homo sapiens, UniProt P10275, T878A); assay: AR binding assay; conditions: 3H-R1881 1 nM, 4° C. 24 hrs
T1 construct: endogenous in cells; host or cells: LNCaP cytosol
T1 sequence (P10275 1-920 T878A): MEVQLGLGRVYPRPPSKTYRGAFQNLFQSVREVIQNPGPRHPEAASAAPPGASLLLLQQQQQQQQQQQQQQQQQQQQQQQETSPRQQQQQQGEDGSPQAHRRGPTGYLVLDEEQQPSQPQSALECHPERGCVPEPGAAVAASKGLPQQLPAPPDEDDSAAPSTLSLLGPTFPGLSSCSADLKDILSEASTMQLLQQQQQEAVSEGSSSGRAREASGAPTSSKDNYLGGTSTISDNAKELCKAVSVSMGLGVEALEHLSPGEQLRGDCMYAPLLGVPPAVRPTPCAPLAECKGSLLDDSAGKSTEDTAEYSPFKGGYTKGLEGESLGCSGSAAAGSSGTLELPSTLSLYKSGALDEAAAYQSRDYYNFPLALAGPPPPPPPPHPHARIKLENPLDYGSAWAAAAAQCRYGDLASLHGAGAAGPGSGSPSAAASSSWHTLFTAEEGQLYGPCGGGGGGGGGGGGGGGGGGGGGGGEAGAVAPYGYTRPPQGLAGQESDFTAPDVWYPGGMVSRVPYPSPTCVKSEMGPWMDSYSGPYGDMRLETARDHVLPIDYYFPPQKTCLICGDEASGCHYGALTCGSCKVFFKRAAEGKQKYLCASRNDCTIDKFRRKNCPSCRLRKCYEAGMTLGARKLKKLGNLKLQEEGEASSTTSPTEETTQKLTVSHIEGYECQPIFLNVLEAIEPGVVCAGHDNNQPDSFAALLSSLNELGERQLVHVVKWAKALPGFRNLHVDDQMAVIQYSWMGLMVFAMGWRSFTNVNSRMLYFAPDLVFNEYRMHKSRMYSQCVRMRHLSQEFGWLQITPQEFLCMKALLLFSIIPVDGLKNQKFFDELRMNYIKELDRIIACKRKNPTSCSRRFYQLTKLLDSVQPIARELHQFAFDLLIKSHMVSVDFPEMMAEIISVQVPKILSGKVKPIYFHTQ
Procedure: AR binding assay: To assess AR binding, test compound (top dose 10 μM, 4 fold serial dilution, 8 point dose response) and control (progesterone) were transferred to the assay plate. Cytosol from LnCaP cells was added to the plate, followed by addition of radiolabeled ^3H-R1881 at a final concentration of 1 nM. The plate was sealed, and the reaction was incubated at 300 rpm at 4° C. for 24 hrs. Radioligand absorption buffer (10 mM Tris-HCl, pH 7.4; 1.5 mM EDTA; 1 mM DTT; 0.25% charcoal; 0.0025% dextran) was then added to the plate, mixed, and incubated at 4° C. for 15 minutes. The plate was then centrifuged at 3000 rpm for 30 minutes at 4° C. The supernatant was transferred to the scint-tube and Tri-carb was used for scintillation counting.

[2] = molecular target: T2, full-length androgen receptor (HEK293 cells stably expressing) (Homo sapiens, UniProt P10275); assay: AR antagonism assay; format: cell-based; conditions: testosterone 1 nM, 20 h, Steady-glo
T2 construct: HEK293 cells stably expressing the full-length androgen receptor were seeded; expressed in transfected cells
T2 sequence (P10275 1-920): T1 sequence (P10275 1-920 T878A) with A878T
Procedure: AR antagonism assay: To evaluate AR antagonist activity, test compound was added to the assay plate (top dose 10 μM, 3 fold serial dilution, 10 point dose response). HEK293 cells stably expressing the full-length androgen receptor were seeded at a density of 20000 cells/well in the assay plate. The assay plate was then incubated at room temperature for 10 minutes and at 37° C., 5% CO2 for 20 minutes. Testosterone is added to the assay plate at 1 nM final concentration and the assay plate incubated at 37° C., 5% CO2 for 20 h. After the incubation period, Steady-glo was added to the assay plate and mixed at room temperature for 20 minutes on an orbital shaker, before reading out on the EnVision plate reader.

[3] = test system: LNCap cells; assay: Cell viability assay LNCap; format: cell-based; conditions: Homo sapiens, 144 h, 6 days, CellTiterGlo
Procedure: (§1) Cell viability assay: LNCap, 22Rv1, MCF7, MDAMB361, T47D, and IEC6 cells were seeded at a density of 500-2000 cells/well in 96 well plates, and a ‘T0’ (timepoint 0) was included along with the assay plate. The plates were then incubated at 37° C., 5% CO2 in a cell culture incubator overnight. On the next day, the ‘T0’ plate was assayed using CellTiterGlo (Promega, Inc) according to the manufacturer's instructions. The appropriate compounds were diluted in DMSO and added to the assay plate (final DMSO concentration of 0.1-0.2%) on the next day. The assay plates were incubated for 6 days at 37° C., 5% CO2. After the incubation period, the plates were assayed using CellTiterGlo (Promega, Inc) according to the manufacturer's instructions and luminescence was read on the EnVision plate reader. Inhibition of the tested compounds was determined by the following formula: Inhibition rate (%)=(1−(RLU compound−RLU day0)/(RLU control−RLU day0))*100%. GraphPadPrism was used to analyze the data and determine GI50/IC50 values.

[4] = test system: 22Rv1 cells; assay: Cell viability assay 22Rv1; format: cell-based; conditions: Homo sapiens, 22Rv1, 144 h; 6 days, CellTiterGlo
Procedure: as §1

[5] = test system: IEC6 cells; assay: Cell viability assay IEC6; format: cell-based; conditions: Rattus norvegicus, IEC-6, 144 h; 6 days, CellTiterGlo
Procedure: as §1

| Structure (SMILES) | IC50 [1] | IC50 [2] | GI50 [3] | GI50 [4] | IC50 [5] |
| --- | --- | --- | --- | --- | --- |
| CCc1cc2ncc(CN3CCN(c4ccc(C(=O)N5CCN(CC6CCN(c7ccc(C(=O)N[C@H]8CC[C@H](Oc9ccc(C#N)c(Cl)c9)CC8)nn7)CC6)CC5)nc4)CC3)cc2[nH]c1=O [Compound 59, N-((1r,4r)-4-(3-Chloro-4-cyanophenoxy)cyclohexyl)-6-(4-((4-(5-(4-((7-ethyl-6-oxo-5,6-dihydro-1,5-naphthyridin-3-yl)methyl)piperazin-1-yl)picolinoyl)piperazin-1-yl)methyl)piperidin-1-yl)pyridazine-3-carboxamide] | < 0.1 µM | > 10 µM | 0.5 to 5 µM | 0.5 to 5 µM | > 30 µM |
| CCc1cc2ncc(CN3CCN(c4ccc(C(=O)NCC5CCN(c6ccc(C(=O)N[C@H]7CC[C@H](Oc8ccc(C#N)c(Cl)c8)CC7)nn6)CC5)nc4)CC3)cc2[nH]c1=O [Compound 1, N-((1r,4r)-4-(3-Chloro-4-cyanophenoxy)cyclohexyl)-6-(4-((5-(4-((7-ethyl-6-oxo-5,6-dihydro-1,5-naphthyridin-3-yl)methyl)piperazin-1-yl)picolinamido)methyl)piperidin-1-yl)pyridazine-3-carboxamide] | 0.1 to 1 µM | > 10 µM | ≤ 0.5 µM | 0.5 to 5 µM | > 30 µM |
| CCc1cc2ncc(CN3CCN(C[C@H]4CC[C@H](COc5cc(F)c([C@@H]6c7[nH]c8ccccc8c7C[C@@H](C)N6CC(C)(C)F)c(F)c5)CC4)CC3)cc2[nH]c1=O [Compound 75, 7-((4-(((1R,4r)-4-((3,5-Difluoro-4-((1R,3R)-2-(2-fluoro-2-methylpropyl)-3-methyl-2,3,4,9-tetrahydro-1H-pyrido[3,4-b]indol-1-yl)phenoxy)methyl)cyclohexyl)methyl)piperazin-1-yl)methyl)-3-ethyl-1,5-naphthyridin-2(1H)-one] |  |  |  |  | 5 to 30 µM |
| CCc1cc2ncc(CN3CCN(CC4CCN(c5ccc(C(=O)N[C@H]6CC[C@H](Oc7ccc(C#N)c(Cl)c7C)CC6)nn5)CC4)CC3)cc2[nH]c1=O [Compound 66, N-((1r,4r)-4-(3-Chloro-4-cyano-2-methylphenoxy)cyclohexyl)-6-(4-((4-((7-ethyl-6-oxo-5,6-dihydro-1,5-naphthyridin-3-yl)methyl)piperazin-1-yl)methyl)piperidin-1-yl)pyridazine-3-carboxamide] | < 0.1 µM | > 10 µM | ≤ 0.5 µM | ≤ 0.5 µM | 0.5 to 5 µM |
| CCc1cc2ncc(CN3CCN(Cc4ccc(-c5nnc([C@H](Nc6ccc(C#N)c(Cl)c6C)[C@H](C)O)o5)cc4)CC3)cc2[nH]c1=O [Compound 69, 2-Chloro-4-(((1R,2S)-1-(5-(4-((4-((7-ethyl-6-oxo-5,6-dihydro-1,5-naphthyridin-3-yl)methyl)piperazin-1-yl)methyl)phenyl)-1,3,4-oxadiazol-2-yl)-2-hydroxypropyl)amino)-3-methylbenzonitrile] | > 10 µM | > 10 µM | 0.5 to 5 µM | 5 to 30 µM | > 30 µM |
| CCc1cc2ncc(CN3CCN(Cc4ccc(-c5nnc([C@H](Nc6ccc(C#N)c(Cl)c6)[C@H](C)O)o5)cc4)CC3)cc2[nH]c1=O [Compound 68, 2-Chloro-4-(((1R,2S)-1-(5-(4-((4-((7-ethyl-6-oxo-5,6-dihydro-1,5-naphthyridin-3-yl)methyl)piperazin-1-yl)methyl)phenyl)-1,3,4-oxadiazol-2-yl)-2-hydroxypropyl)amino)benzonitrile] | > 10 µM | > 10 µM | 0.5 to 5 µM | 5 to 30 µM | > 30 µM |
| CCc1cc2ncc(CN3CCN(c4ccc(-c5nnc([C@H](Nc6ccc(C#N)c(Cl)c6C)[C@H](C)O)o5)cc4)CC3)cc2[nH]c1=O [Compound 64, 2-Chloro-4-(((1R,2S)-1-(5-(4-(4-((7-ethyl-6-oxo-5,6-dihydro-1,5-naphthyridin-3-yl)methyl)piperazin-1-yl)phenyl)-1,3,4-oxadiazol-2-yl)-2-hydroxypropyl)amino)-3-methyl Benzonitrile] | 1 to 10 µM | > 10 µM | 0.5 to 5 µM | 5 to 30 µM | 0.5 to 5 µM |
| CCc1cc2ncc(CN3CCN(CC4CCN(c5ccc(C(=O)N[C@H]6CC[C@H](N(C)c7ccc(C#N)c(Cl)c7)CC6)nn5)CC4)CC3)cc2[nH]c1=O [Compound 67, N-((1R,4R)-4-((3-Chloro-4-cyanophenyl)(methyl)amino)cyclohexyl)-6-(4-((4-((7-ethyl-6-oxo-5,6-dihydro-1,5-naphthyridin-3-yl)methyl)piperazin-1-yl)methyl)piperidin-1-yl)pyridazine-3-carboxamide] | < 0.1 µM | > 10 µM | ≤ 0.5 µM | ≤ 0.5 µM | > 30 µM |
| CCc1cc2ncc(CN3CCN(c4ccc(-c5nnc([C@H](Nc6ccc(C#N)c(Cl)c6)[C@H](C)O)o5)cc4)CC3)cc2[nH]c1=O [Compound 63, 2-Chloro-4-(((1R,2S)-1-(5-(4-(4-((7-ethyl-6-oxo-5,6-dihydro-1,5-naphthyridin-3-yl)methyl)piperazin-1-yl)phenyl)-1,3,4-oxadiazol-2-yl)-2-hydroxypropyl)amino)benzonitrile] | 0.1 to 1 µM | > 10 µM | 0.5 to 5 µM | 5 to 30 µM | > 30 µM |
